Laboratory results as given in patent US11939361B2, “Compositions of peptide inhibitors of Interleukin-23 receptor” (Janssen Pharmaceutica NV, priority 2020, dated 2024).

How the values were obtained:
[1] = Solubility of acetate form of SEQ ID NO: 1 in various media; format: physicochemical
Procedure: An acetate form of SEQ ID NO: 1 prepared according to Example 1 was evaluated for solubility under various conditions.

[2] = Rat PK Study 2: effect of NaC10 concentration, IC injection; format: in vivo, rats; settings: peptide 10 mg/Kg
Excerpt: In this example, the effect of the concentration of NaCl0 was studied.

[3] = tested on: IL-23-induced IL-17A secretion; assay: In vitro rat whole blood assay of IL-23-induced IL-17A secretion; format: cell-based; settings: as quoted in Example 12
[4] = Storage of phosphate buffered solution; format: physicochemical; settings: 0.33-33 mg/mL in 50 mM sodium phosphate buffer, 2-8° C.
Procedure: The resultant solution can be stored at 2-8° C. for up to 4 weeks.

[5] = Dog PK Study: single PO dose of tablets/solution; settings: peptide 10 mg/Kg, NaC10 50 mg/Kg
Procedure: Poloxamer P188 was also assessed, in combination with NaCl0 with the aim of determining potential synergism. […] Control tablet cores (immediate-release) without the absorption enhancers were also manufactured and dosed as control in the study.
Following dosing of tablets, 10 mL additional water was given. The normal dry diet was returned 2 hours post-dose.

CC(=O)NCCCC[C@@H]1NC(=O)[C@H](Cc2c[nH]c3c(C)cccc23)NC(=O)[C@H]([C@@H](C)O)NC(=O)[C@H](CC(N)=O)NC(=O)[C@@H](NC(C)=O)C(C)(C)SSC(C)(C)[C@@H](C(=O)N[C@@H](Cc2ccc(OCCN)cc2)C(=O)N[C@@H](Cc2ccc3ccccc3c2)C(=O)NC2(C(=O)N[C@@H](CCC(=O)O)C(=O)N[C@@H](CC(N)=O)C(=O)N[C@@H](Cc3cccnc3)C(=O)N(C)CC(N)=O)CCOCC2)NC1=O [Acetate Form of SEQ ID NO: 1]
solubility ([1]; 0.01 N HCl, aqueous buffer): 95 mg/mL
solubility ([1]; 0.1 N HCl, aqueous buffer): 780 mg/mL
solubility ([1]; 0.1 N NaOH, aqueous buffer): > 870 mg/mL
solubility ([1]; aqueous buffer, Borate buffer pH 9): > 220 mg/mL
solubility ([1]; aqueous buffer, Citrate buffer pH 2): 270 mg/mL
solubility ([1]; aqueous buffer, Citrate buffer pH 5): 6.9 mg/mL
solubility ([1]; aqueous buffer, Phosphate buffer pH 12): > 440 mg/mL
solubility ([1]; aqueous buffer, phosphate buffer pH 7): 7.5 mg/mL
solubility ([1]; water): 35 mg/mL
increase of systemic exposure given by NaC10 ([2]; NaC10 20 mg/Kg): minimal
absorption enhancement by NaC10 ([2]; NaC10 50 mg/Kg): highest absorption enhancement
oral bioavailability on increasing NaC10 ([2]; NaC10 100 mg/Kg or 200 mg/Kg): did not further increase
effect of NaC10 on systemic exposure ([2]; all NaC10 concentrations tested (20, 50, 200 mg/Kg)): increased
IC50 values presented in Table 14 [3]: 0.10 to 0.47 ng/mL
IC50 ([3]; read-out: IC50 values presented in Table 14): 0.054 to 0.5 nM
Storage time of solution [4]: up to 4 weeks
effect of NaC10 on systemic exposure, all tablets [5]: increased
